Assay results reported in PubChem BioAssay (NCI).
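Exposure lasted 48 hours, with cells grown in 96-well plates and compounds tested at five concentrations. TGI marks complete inhibition of growth.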

test system: SNB-78 CNS; assay: NCI-60 cell line screen, 48 h

First: [O-][n+]1c(-c2ccccc2)oc2ccccc21
Second: Cc1ccc(N=Nc2c(C)nn(-c3ccccc3)c2C)c(Br)c1
The TGI of the first is lower: 97.1 µM for the first, > 100 µM for the second.

Cc1cccc(C)c1NC(=O)CCC(=O)NNc1nnc(C)n1N and CCOC(=O)[C@]12C3C=CC(C3)C1C(=O)C1OC12 (some centres not stated) cannot be ordered by TGI: > 100 µM for the first, > 100 µM for the second.

test system: SW-620 colon; assay: NCI-60 cell line screen, 48 h

Compared with [O-][n+]1c(-c2ccccc2)oc2ccccc21, Cc1ccc(N=Nc2c(C)nn(-c3ccccc3)c2C)c(Br)c1 is higher in TGI: 39.1 µM for the first, > 100 µM for the second.

Cc1cccc(C)c1NC(=O)CCC(=O)NNc1nnc(C)n1N and CCOC(=O)[C@]12C3C=CC(C3)C1C(=O)C1OC12 (some centres not stated) cannot be ordered by TGI: > 100 µM for the first, > 100 µM for the second.

test system: LXFL 529 NSCLC; assay: NCI-60 cell line screen, 48 h

[O-][n+]1c(-c2ccccc2)oc2ccccc21 and Cc1ccc(N=Nc2c(C)nn(-c3ccccc3)c2C)c(Br)c1 cannot be ordered by TGI: > 94.4 µM for the first, > 100 µM for the second.

Cc1cccc(C)c1NC(=O)CCC(=O)NNc1nnc(C)n1N and CCOC(=O)[C@]12C3C=CC(C3)C1C(=O)C1OC12 (some centres not stated) cannot be ordered by TGI: > 100 µM for the first, > 100 µM for the second.

test system: SK-MEL-2 melanoma; assay: NCI-60 cell line screen, 48 h

Compared with [O-][n+]1c(-c2ccccc2)oc2ccccc21, Cc1ccc(N=Nc2c(C)nn(-c3ccccc3)c2C)c(Br)c1 is higher in TGI: 40.4 µM for the first, > 100 µM for the second.

Cc1cccc(C)c1NC(=O)CCC(=O)NNc1nnc(C)n1N and CCOC(=O)[C@]12C3C=CC(C3)C1C(=O)C1OC12 (some centres not stated) cannot be ordered by TGI: > 100 µM for the first, > 100 µM for the second.

test system: UACC-257 melanoma; assay: NCI-60 cell line screen, 48 h

First: [O-][n+]1c(-c2ccccc2)oc2ccccc21
Second: Cc1ccc(N=Nc2c(C)nn(-c3ccccc3)c2C)c(Br)c1
The TGI of the first is lower: 22.6 µM for the first, > 100 µM for the second.

Cc1cccc(C)c1NC(=O)CCC(=O)NNc1nnc(C)n1N and CCOC(=O)[C@]12C3C=CC(C3)C1C(=O)C1OC12 (some centres not stated) cannot be ordered by TGI: > 100 µM for the first, > 100 µM for the second.

test system: KM20L2 colon; assay: NCI-60 cell line screen, 48 h

Compared with [O-][n+]1c(-c2ccccc2)oc2ccccc21, Cc1ccc(N=Nc2c(C)nn(-c3ccccc3)c2C)c(Br)c1 is higher in TGI: 43.1 µM for the first, > 100 µM for the second.

With Cc1cccc(C)c1NC(=O)CCC(=O)NNc1nnc(C)n1N the TGI was > 100 µM.

test system: DLD-1 colon; assay: NCI-60 cell line screen, 48 h

[O-][n+]1c(-c2ccccc2)oc2ccccc21 and Cc1ccc(N=Nc2c(C)nn(-c3ccccc3)c2C)c(Br)c1 cannot be ordered by TGI: > 59.5 µM for the first, > 100 µM for the second.

Cc1cccc(C)c1NC(=O)CCC(=O)NNc1nnc(C)n1N and CCOC(=O)[C@]12C3C=CC(C3)C1C(=O)C1OC12 (some centres not stated) cannot be ordered by TGI: > 100 µM for the first, > 100 µM for the second.

test system: SNB-19 CNS; assay: NCI-60 cell line screen, 48 h

[O-][n+]1c(-c2ccccc2)oc2ccccc21 and Cc1ccc(N=Nc2c(C)nn(-c3ccccc3)c2C)c(Br)c1 cannot be ordered by TGI: > 65.1 µM for the first, > 100 µM for the second.

Cc1cccc(C)c1NC(=O)CCC(=O)NNc1nnc(C)n1N and CCOC(=O)[C@]12C3C=CC(C3)C1C(=O)C1OC12 (some centres not stated) cannot be ordered by TGI: > 100 µM for the first, > 100 µM for the second.

test system: CCRF-CEM leukemia; assay: NCI-60 cell line screen, 48 h

[O-][n+]1c(-c2ccccc2)oc2ccccc21 and Cc1ccc(N=Nc2c(C)nn(-c3ccccc3)c2C)c(Br)c1 cannot be ordered by TGI: > 100 µM for the first, > 100 µM for the second.

Cc1cccc(C)c1NC(=O)CCC(=O)NNc1nnc(C)n1N and CCOC(=O)[C@]12C3C=CC(C3)C1C(=O)C1OC12 (some centres not stated) cannot be ordered by TGI: > 100 µM for the first, > 100 µM for the second.

test system: A498 renal; assay: NCI-60 cell line screen, 48 h

Compared with [O-][n+]1c(-c2ccccc2)oc2ccccc21, Cc1ccc(N=Nc2c(C)nn(-c3ccccc3)c2C)c(Br)c1 is higher in TGI: 34.8 µM for the first, > 100 µM for the second.

Cc1cccc(C)c1NC(=O)CCC(=O)NNc1nnc(C)n1N and CCOC(=O)[C@]12C3C=CC(C3)C1C(=O)C1OC12 (some centres not stated) cannot be ordered by TGI: > 100 µM for the first, > 100 µM for the second.

test system: SNB-75 CNS; assay: NCI-60 cell line screen, 48 h

Compared with [O-][n+]1c(-c2ccccc2)oc2ccccc21, Cc1ccc(N=Nc2c(C)nn(-c3ccccc3)c2C)c(Br)c1 is higher in TGI: 32.7 µM for the first, > 100 µM for the second.

Cc1cccc(C)c1NC(=O)CCC(=O)NNc1nnc(C)n1N and CCOC(=O)[C@]12C3C=CC(C3)C1C(=O)C1OC12 (some centres not stated) cannot be ordered by TGI: > 100 µM for the first, > 100 µM for the second.

test system: RXF-631 renal; assay: NCI-60 cell line screen, 48 h

[O-][n+]1c(-c2ccccc2)oc2ccccc21 and Cc1ccc(N=Nc2c(C)nn(-c3ccccc3)c2C)c(Br)c1 cannot be ordered by TGI: > 100 µM for the first, > 100 µM for the second.

Cc1cccc(C)c1NC(=O)CCC(=O)NNc1nnc(C)n1N and CCOC(=O)[C@]12C3C=CC(C3)C1C(=O)C1OC12 (some centres not stated) cannot be ordered by TGI: > 100 µM for the first, > 100 µM for the second.

test system: SK-MEL-28 melanoma; assay: NCI-60 cell line screen, 48 h

Compared with [O-][n+]1c(-c2ccccc2)oc2ccccc21, Cc1ccc(N=Nc2c(C)nn(-c3ccccc3)c2C)c(Br)c1 is higher in TGI: 36.6 µM for the first, > 100 µM for the second.

Cc1cccc(C)c1NC(=O)CCC(=O)NNc1nnc(C)n1N and CCOC(=O)[C@]12C3C=CC(C3)C1C(=O)C1OC12 (some centres not stated) cannot be ordered by TGI: > 100 µM for the first, > 100 µM for the second.

test system: EKVX NSCLC; assay: NCI-60 cell line screen, 48 h

Going from [O-][n+]1c(-c2ccccc2)oc2ccccc21 to Cc1ccc(N=Nc2c(C)nn(-c3ccccc3)c2C)c(Br)c1, the TGI rises from 63 µM to > 100 µM.

Cc1cccc(C)c1NC(=O)CCC(=O)NNc1nnc(C)n1N and CCOC(=O)[C@]12C3C=CC(C3)C1C(=O)C1OC12 (some centres not stated) cannot be ordered by TGI: > 100 µM for the first, > 100 µM for the second.

test system: OVCAR-3 ovarian; assay: NCI-60 cell line screen, 48 h

First: [O-][n+]1c(-c2ccccc2)oc2ccccc21
Second: Cc1cccc(C)c1NC(=O)CCC(=O)NNc1nnc(C)n1N
The TGI of the first is lower: 65.9 µM for the first, > 100 µM for the second.
